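Step 1: Grow cells in 96-well plates. Step 2: Expose to compound for 48 hours at 5 concentrations. Step 3: Interpolate endpoints linearly; if unreached, use highest concentration. The concentration for 50% growth inhibition is given as GI50.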 Activity calls are given as the source filed them. Rule as the data show it: active = GI50 up to about 1.1 µM and inactive = higher. Residues, ends and D or L forms follow the SMILES beside them. *: point of attachment. Cbz = O=C(OCc1ccccc1)*; Boc = CC(C)(C)OC(=O)*; OSu = O=C1CCC(=O)N1O*; Bn = c1ccc(C*)cc1
Legend:
Experiment in all cases: NCI-60 cell line screen, 48 h
SK-MEL-28 = test system: SK-MEL-28
Malme-3M = test system: Malme-3M
COLO 205 = test system: COLO 205
NCI-H23 = test system: NCI-H23
SF-268 = test system: SF-268
OVCAR-4 = test system: OVCAR-4
HL-60 = test system: HL-60
SF-295 = test system: SF-295
HCC 2998 = test system: HCC 2998
ACHN = test system: ACHN
HCT-116 = test system: HCT-116
SNB-19 = test system: SNB-19
NCI-H522 = test system: NCI-H522
OVCAR-3 = test system: OVCAR-3
SF-539 = test system: SF-539
EKVX = test system: EKVX
MDA-MB-435 = test system: MDA-MB-435
MDA-MB-231 = test system: MDA-MB-231
T47D = test system: T47D

Measured: GI50

O/N=C(\c1nc2ccc(Cl)cc2nc1O)C(O)c1ccc(Cl)cc1Cl (centres undefined)
inactive: SK-MEL-28 > 100 µM | Malme-3M > 100 µM | COLO 205 > 100 µM | NCI-H23 > 100 µM | SF-268 > 100 µM | OVCAR-4 > 100 µM | HL-60 > 100 µM | SF-295 > 100 µM | HCC 2998 > 100 µM | ACHN > 100 µM | HCT-116 > 100 µM | SNB-19 > 100 µM | NCI-H522 > 100 µM | OVCAR-3 > 100 µM | SF-539 > 100 µM

COc1cc(C2C(C(=O)Nc3cc(F)c(F)cc3F)=C(C)NC(C)=C2C(=O)Nc2cc(F)c(F)cc2F)ccc1O
inactive: SK-MEL-28 25.4 µM | Malme-3M 24.7 µM | COLO 205 30.9 µM | NCI-H23 17.1 µM | SF-268 15 µM | OVCAR-4 17.3 µM | HL-60 15.7 µM | SF-295 21.3 µM | HCC 2998 13.9 µM | ACHN 18.8 µM | EKVX 14.9 µM | SNB-19 29.2 µM | NCI-H522 13.3 µM | OVCAR-3 14.3 µM | SF-539 26.8 µM

Cc1ccc(-c2c(C#N)c(-c3ccc(Cl)cc3)c(C#N)c(=O)n2NS(=O)(=O)c2ccc(C)cc2)cc1
inactive: SK-MEL-28 30.3 µM | Malme-3M 20.8 µM | COLO 205 42.1 µM | SF-268 26.3 µM | OVCAR-4 26.6 µM | SF-295 24 µM | HCC 2998 19.5 µM | ACHN 36.2 µM | MDA-MB-435 30.6 µM | EKVX 47.6 µM | HCT-116 20.5 µM | SNB-19 36.3 µM | NCI-H522 23.1 µM | MDA-MB-231 38.5 µM | SF-539 18.7 µM

Cc1ccc2c(C3Cc4ccccc4N3C(=O)/C=C\C(=O)O)c(C)[nH]c2c1 (centres undefined)
inactive: SK-MEL-28 59 µM | Malme-3M 33.5 µM | COLO 205 22.3 µM | NCI-H23 67.9 µM | OVCAR-4 > 100 µM | HL-60 19.6 µM | SF-295 28.8 µM | HCC 2998 73.8 µM | ACHN > 100 µM | EKVX 78.7 µM | HCT-116 53 µM | SNB-19 40.7 µM | NCI-H522 24.7 µM | OVCAR-3 19.6 µM | SF-539 47.2 µM

N#Cc1c(N2CCOCC2)ncn(-c2ccccc2)c1=O
inactive: SK-MEL-28 > 100 µM | COLO 205 > 100 µM | NCI-H23 > 100 µM | HL-60 3.08 µM | SF-295 > 100 µM | HCC 2998 > 100 µM | ACHN > 100 µM | MDA-MB-435 > 100 µM | EKVX > 100 µM | HCT-116 > 100 µM | SNB-19 > 100 µM | OVCAR-3 > 100 µM | T47D > 100 µM | SF-539 > 100 µM

COc1ccc2oc(-c3cc4cc(OC)ccc4o3)cc2c1
inactive: SK-MEL-28 > 100 µM | Malme-3M > 100 µM | COLO 205 > 100 µM | NCI-H23 > 100 µM | SF-268 > 100 µM | OVCAR-4 > 100 µM | HL-60 > 100 µM | SF-295 > 100 µM | HCC 2998 > 100 µM | ACHN > 100 µM | EKVX > 100 µM | SNB-19 > 100 µM | NCI-H522 > 100 µM | OVCAR-3 > 100 µM

Cc1csc(NNC(N)=O)n1
inactive: SK-MEL-28 > 100 µM | COLO 205 > 100 µM | NCI-H23 > 100 µM | SF-268 > 100 µM | OVCAR-4 > 100 µM | HL-60 > 100 µM | SF-295 > 100 µM | HCC 2998 > 100 µM | ACHN > 100 µM | MDA-MB-435 > 100 µM | EKVX > 100 µM | HCT-116 > 100 µM | SNB-19 > 100 µM | NCI-H522 > 100 µM | OVCAR-3 > 100 µM | MDA-MB-231 > 100 µM | SF-539 > 100 µM

COc1ccc(C2ON(c3ccccc3)CC=C2C)cc1 (centres undefined)
inactive: SK-MEL-28 61.8 µM | Malme-3M > 100 µM | COLO 205 99.3 µM | NCI-H23 52.7 µM | SF-268 > 100 µM | OVCAR-4 34.5 µM | HL-60 34.6 µM | SF-295 93.8 µM | HCC 2998 > 100 µM | ACHN 79.1 µM | EKVX > 100 µM | HCT-116 66.7 µM | SNB-19 > 100 µM | NCI-H522 19.2 µM | OVCAR-3 > 100 µM | SF-539 > 100 µM

c1cc(-c2ccc(-c3ccsc3)s2)cs1
inactive: COLO 205 > 100 µM | NCI-H23 16.2 µM | SF-268 > 100 µM | OVCAR-4 18.1 µM | HL-60 19.2 µM | SF-295 54 µM | HCC 2998 > 100 µM | ACHN 35.9 µM | MDA-MB-435 > 100 µM | EKVX 85.5 µM | HCT-116 > 100 µM | NCI-H522 > 100 µM | OVCAR-3 > 100 µM | T47D > 100 µM | SF-539 36.4 µM

CCc1ccccc1NC(=O)/C(CC(=O)c1c(C)[n+]([O-])c2ccccc2[n+]1[O-])=N\NS(=O)(=O)c1ccc(C)cc1
inactive: SK-MEL-28 47.9 µM | Malme-3M 57.4 µM | COLO 205 36.8 µM | NCI-H23 35.2 µM | SF-268 25.8 µM | OVCAR-4 22.5 µM | HL-60 15.8 µM | SF-295 > 100 µM | HCC 2998 47.1 µM | ACHN 57 µM | EKVX 46 µM | HCT-116 16.8 µM | SNB-19 > 100 µM | NCI-H522 16.1 µM | OVCAR-3 12.1 µM | SF-539 36.6 µM

C[C@]12CC[C@H](O)CC1=CC[C@@H]1[C@@H]2CC[C@]2(C)/C(=N/OCCN3CCCC3)CC[C@@H]12
inactive: SK-MEL-28 16.5 µM | Malme-3M 14.1 µM | COLO 205 16 µM | NCI-H23 14.1 µM | SF-268 53.2 µM | OVCAR-4 16.4 µM | HL-60 7.74 µM | SF-295 19.4 µM | HCC 2998 22.3 µM | ACHN 25.5 µM | MDA-MB-435 15.8 µM | EKVX 10.8 µM | HCT-116 14.9 µM | SNB-19 23.4 µM | NCI-H522 13 µM | OVCAR-3 16.5 µM | MDA-MB-231 19.9 µM | SF-539 14.6 µM

CC(C)(C)OC(=O)NC(Cc1ccc(OCc2ccccc2)cc1)C(=O)NC(CCCCNC(=O)OCc1ccccc1)C(=O)NC(CCCCNC(=O)OCc1ccccc1)C(=O)ON1C(=O)CCC1=O (centres undefined) (Boc-Tyr(Bn)-Lys(Cbz)-Lys(Cbz)-OSu; configuration not given here)
inactive: SK-MEL-28 30.6 µM | Malme-3M 54.3 µM | COLO 205 31.1 µM | NCI-H23 28.6 µM | SF-268 40.2 µM | OVCAR-4 60.7 µM | SF-295 24 µM | ACHN 38.5 µM | MDA-MB-435 33.1 µM | EKVX > 100 µM | HCT-116 24.9 µM | SNB-19 16.6 µM | NCI-H522 16.4 µM | T47D 21 µM
